Results reported in patent US20080164212A1, “Method for Determining and Controlling the Formation of Deposits In a Water System” (ASHLAND LICENSING AND INTELLECTUAL PROPERTY LLC., priority 2005, published 2008).

Tested on: total germ count (aerobic bacteria) in wire water of a newsprint paper machine
Assay: Total germ count by plating on agar, wire water in a flow cell system dosed daily with biocide
Type: cell-based
Conditions: 5 days in a flow cell, 48° C.
Procedure: Furthermore, conventional platings on agar (Plate Count Agar from Merck, Darmstadt, Germany) were also carried out to obtain an indication of the total germ counts.
The aim was to determine the correlation between the results of a conventional biocide screening and the real formation of slime deposits. The investigations were carried on the wire water of a newsprint paper machine using 100% TMP. With a biocide screening, it was possible to determine the optimum biocide concentration for the achievement of a germ count reduction by 10^2 within 30 minutes. In order to follow slime formation at this biocide concentration, a flow cell system with suspended coupons was employed.
The wire water, which was also used for the biocide screening, was poured into the storage bottles of this system and enriched with a number of clots of slime from the wire water channel. The investigation was carried out at system temperature (in this case 48° C.). During the test period of 5 days, biocide was dosed daily. After exposure, the coupons were immediately selectively dyed in order to distinguish between live and dead organisms and then analysed with CLSM. Samples were plated on an agar medium (aerobically) at the same time.

Row | SMILES | Total germ count (peracetic acid 60 ppm product) [cfu/ml] | Total germ count (DBNPA 40 ppm product) [cfa/ml]
1 | CC(=O)OO [peracetic acid] | < 1000 | 
2 | N#CC(Br)(Br)C(N)=O [DBNPA, dibromonitrile propionamide] |  | < 1000
